The values that follow come from patent publication US20240336567A1, “PESTICIDAL AND HERBICIDAL COMPOUNDS AND METHODS OF USE THEREOF” (AG Plenus Ltd, priority 2021, published 2024).

The subject of test [1] is AMAPA. Put plainly: In-planta LTP pre-emergence, visual phenotype. The test is classed as in vivo, Amaranthus palmeri. As to conditions: dicot; for pest or weed control at 2000 g/ha: Amaranthus palmeri, 432 h, read-out: IG Inhibited growth (% effect). The method, then:
(§1) A basic panel of 8 weed species (Table 3) were sowed in 4×4×7 cm plastic pots containing inert sand (Sweet sand), intensively washed using osmosis water. Each specie was sowed in a separate pot. In each pot 10-15 seeds were sowed according to the specie viability. Sowing was performed one day before application. The plants were grown for 21 days in a controlled greenhouse (26±2° C. day 20±2° C. night). Hood irrigation (tap water+Shefer 5:3:8 8 mM) was given at a 50% water content by weight. Compounds were soluble in water (DDW), and commercial herbicide control was soluble in formulation B (Table 4). Application was conducted with an industrial sprayer (TeeJet 6502E nozzle) at a rate of 2 kg/ha and spray volume of […]. Pre-emergence advanced dose response experiment application was conducted at six rates between 1-0.0312 kg/ha and spray volume of […]. Percentage of emergence was evaluated at 15 DAA. Visual phenotyping was recorded using a scale of 0-6 (0: no visible effect, 6: maximum effect) at 18 DAA. All experiments included an untreated control, a solvent control and a positive control (commercial herbicide A.I.). Statistical analysis for visual phenotyping determined by a median value of ≥3.5 and Fisher test (pval≤0.05). Statistical analysis for plant emergence determined by % emergence ≥50 and T test (pval≤0.05), as well as Wilcox test (pval≤0.05).

Test [2] can be described thus: in vitro thermal shift (binding of compound to the target). As to conditions: thermal shift caused by binding of the compound to the (unnamed) target.
The test system of test [3] is Eragrostis teff. The experiment in a line: HTPS - Monocot - Pre-emergence. As to conditions: N/A: not active; for Emax: read-out: HTPS - Monocot - Pre Max effect. It is filed as in vivo. The method, then:
(§2) Arabidopsis thaliana seeds were sown in 96 well plates filled with irrigated Sweet sand (10%>clay) that is washed from salts and minerals using tap water. 5-10 seeds were sown in the center of each well. 7-8 days post sowing, at 2 true leaves stage, thinning out was performed to ensure that compound application is done on a single plant per well. The plates were placed in a controlled greenhouse in a random order inside a bath which allows flooding irrigation with tap water supplemented with a fertilizer. Applied compounds were dissolved into a final solution of 50% acetone, 49.9% DDW, 0.1% tween-20. A 96 well plate was used as a stock plate for preparing application solutions for 8 repeats. Each row contained different concentrations per chemical. Maximal concentration for application was 1.5 Kg/Ha and dilution factor is 2.5. Chemical application was performed one day after thinning out in a chemical hood. 5 μL applied on first two true leaves in each well using 12 channel pipettes. Data collection: RGB (red, green, blue) data for green area per well was documented using camera. Data is collected at a few time points during the experiment: one day after thinning and before chemical application, two-, six- or nine-days post application. During the last two documentations, visual phenotyping was performed. Data analysis: Given RGB results and visual phenotype scores, a student t-test conducted to compare between treatment and control performance for continuous data (RGB) and Fisher exact test to analyze the non-continuous data (phenotypic scores). Dose-Response curves are generated for each treatment to infer ED50 and max. inhibition parameters, using treatment's log concentration range as the […] variable and normalized green area. These experiments are conducted similarly except that either Arabidopsis thaliana or Eragrostis teff seeds were sowed (5-10 or 5-7, respectively), plant thinning out was not performed, compound dissolved into a final solution of 50% acetone, 49.9% DDW, compound application was done at 30 μL volume per well directly on sowed soil before plant emergence and data was collected 10 or 7 days after chemical application on dicot or monocot plants, respectively. Plate imaging performed at 11 and 18 DAA. RGB data for green area per well was documented and used to extract % inhibition. Dose-Response curves were built for each treatment to infer ED50, ED75 and ED90 parameters, using treatment's log concentration range as the independent variable and normalized green area as the dependent variable. Treatments were compared to controls performance given RGB results and using student's t-test (p-val≤0.05).

Test [4] deals with SETVI. The experiment in a line: In-planta LTP pre-emergence, visual phenotype. The test is classed as in vivo, Setaria viridis. The settings on record: Setaria viridis, 432 h, monocot. The method, then: as §1
Test [5] relates to POAAN. Put plainly: In-planta LTP pre-emergence, visual phenotype. The test is classed as in vivo, Poa annua. The settings on record: monocot. The method, then:
as §1

For test [6], the system named is MATCA. Put plainly: In-planta LTP post-emergence, visual phenotype. It is filed as in vivo, Matricaria chamomilla. As to conditions: dicot. The method, then: A basic panel of eight weed species (Table 3) sowed in 4×4×7 cm plastic pots containing a garden mix (klasmann). Each specie was sowed in a separate pot. In each pot, 10-15 seeds were sowed according to the specie viability. Timing of application determined at a 1-2 true leaf stage. The plants grew for 30 days in a controlled greenhouse (26±2° C. day, 20±2° C. night). Hood irrigation (tap water+Shefer 5:3:8 8 mM) was given at a 50% water content by weight. Two days before application, the tested plants thinned down to three plants per pot. Compounds were soluble in water (DDW), and commercial herbicide control was soluble in formulation B (Table 4). […] Plants were evaluated at 3 time points (4, 8, 12 days after application (DAA)). At each time point, visual phenotyping was recorded using a scale of 0-6 (0: no visible effect, 6: maximum effect). […]
Post-emergence advanced dose response experiment included 4 species: SETVI, ECHCO, AMAPA, ABUTH (Tables 3, 5). […] Plants were evaluated at 4 time points (6, 12, 18 and 26 DAA). At each time point, visual phenotyping was recorded using a scale of 0-6 (0: no visible effect, 6: maximum effect). […]
Post-emergence advanced wide panel experiment included 24 weed species (Table 5). […] Visual phenotyping was recorded at 4, 11, 17 and 20 DAA using a scale of 0-6 (0: no visible effect, 6: maximum effect). […]

Test [7] concerns LOLPE. Put plainly: In-planta LTP pre-emergence, visual phenotype. The test is classed as in vivo, Lolium perenne. As to conditions: monocot. Here is the method:
as §1

Test [8] deals with Arabidopsis thaliana. The experiment in a line: HTPS (high throughput on soil) - Dicot - Post-emergence. It is filed as in vivo. The settings on record: N/A: not active; for Emax: read-out: HTPS - Dicot - Post Max effect; for HTPS - Dicot - Post ED50: from normalized green area. The method, then:
as §2, with “area.” for “area. These experiments are conducted similarly except that either Arabidopsis thaliana or Eragrostis teff seeds were sowed (5-10 or 5-7, respectively), plant thinning out was not performed, compound dissolved into a final solution of 50% acetone, 49.9% DDW, compound application was done at 30 μL volume per well directly on sowed soil before plant emergence and data was collected 10 or 7 days after chemical application on dicot or monocot plants, respectively.”

Test [9] deals with SOLNI. Put plainly: In-planta LTP pre-emergence, visual phenotype. It is filed as in vivo, Solanum nigrum. As to conditions: dicot. The method, then:
as §1

Test [10] has as its system ALOMY. The experiment in a line: In-planta LTP pre-emergence, visual phenotype. The test is classed as in vivo, Alopecurus myosuroides. The settings on record: monocot. Here is the method: as §1
Test [11] has as its system ECHCO. Put plainly: In-planta LTP pre-emergence, visual phenotype. It is filed as in vivo, Echinochloa colona. As to conditions: monocot. The method, then: as §1
The subject of test [12] is ABUTH. The experiment in a line: In-planta LTP pre-emergence, visual phenotype. It is filed as in vivo, Abutilon theophrasti. The settings on record: dicot. The method, then: as §1
In test [13] the test system is MATCA. The experiment in a line: In-planta LTP pre-emergence, visual phenotype. As to conditions: dicot. It is filed as in vivo, Matricaria chamomilla. Here is the method:
as §1

Test [14] relates to CHEAL. The experiment in a line: In-planta LTP pre-emergence, visual phenotype. The test is classed as in vivo, Chenopodium album. As to conditions: dicot. Here is the method: as §1
Test [15] has as its system EPPHL. Put plainly: In-planta LTP pre-emergence, visual phenotype. The test is classed as in vivo, Euphorbia heterophylla. As to conditions: dicot. The method, then: as §1
The test system of test [16] is DIGSA. Put plainly: In-planta LTP pre-emergence, visual phenotype. The test is classed as in vivo, Digitaria sanguinalis. The settings on record: monocot. Here is the method:
as §1

The test system of test [17] is Arabidopsis thaliana. Put plainly: HTPS - Dicot - Pre-emergence. The settings on record: N/A: not active. The test is classed as in vivo. Here is the method:
as §2

Each structure is given as a SMILES string. Read-outs that look alike come from different tables or passages of the source.

In the case of `NCCOc1ccc(F)c(C(=O)O)c1` [Compound 129], the pest or weed control at 2000 g/ha in test [1] came to 40%; in test [4] (read-out: IG Inhibited growth (% effect)), 40%; in test [5] (Poa annua, 432 h, read-out: IG Inhibited growth (% effect)), 80%. Further, the “in vitro Thermal Shift” value in test [2] came to 9 °C. Further, the “HTPS - Monocot - Pre ED50” value in [3] amounted to 550 g/ha. Moreover, the Emax in [3] was determined as 86%; in test [8], 81%. Besides, the “DE Disturbed emergence (% effect)” value in test [5] is reported as “DE (80) %”. Moreover, the “LOD Lodging (% effect)” value in test [6] was “LOD^3 (40) %”. For the same molecule, the “IG Inhibited growth (% effect)” value in [7] is recorded as “IG (40) %”. For the same molecule, the “HTPS - Dicot - Post ED50” value in test [8] turned out to be 45 g/ha.
Take `CC(N)COc1cccc(C(=O)O)n1` (centres unmarked) [Compound 116]: the “DAB Disturbed apical bud (% effect)” value is given as “DAB^2 (80) %” in test [9]; “DAB (100) %” in [1]; “DAB (80) %” in [12]; “DAB (60) %” in test [13]; “DAB (80) %” in test [14]; “DAB (80) %” in test [15]. Moreover, the “IG Inhibited growth (% effect)” value is “IG (80), %” in test [9]; “IG (100), %” in test [10]; “IG (80), %” in test [12]; “IG (80), %” in [13]; “IG (80), %” in test [14]; “IG (60), %” in [15]. The pest or weed control at 2000 g/ha in [1] was found to be 80%; in test [4] (read-out: DE Disturbed emergence (% effect)), 100%. Further, the “C Chlorosis (% effect)” value in [1] is reported as “C^3 (60), %”. Further, the “W Wilting (% effect)” value in [10] is listed as “W^5 (100) %”. The “DE Disturbed emergence (% effect)” value in [11], in test [5], in test [16] and in test [7] was “DE (100) %” throughout. Besides, the “BL Bleaching (% effect)” value in test [12] is recorded as “Bl (80), %”; in test [13] it was “BL^4 (40), %”; in test [15] it was “BL (80), %”. For the same molecule, in [2], the “in vitro Thermal Shift” value is 16 °C. In addition, in test [3], the “HTPS - Monocot - Pre ED50” value is 10 g/ha. Also, the Emax in test [3], in test [17] (read-out: HTPS - Dicot - Pre Max effect) and in test [8] was 100% each time. The “HTPS - Dicot - Pre ED50” value in test [17] is reported as 10 g/ha. Besides, in test [8], the “HTPS - Dicot - Post ED50” value amounted to 3 g/ha.
